The results in this text go back to patent US4866052A, “Treatment of sickle cell disease” (National Research Development Corporation, priority 1986, dated 1989).

The target of assay [1] is T1, haemoglobin (Homo sapiens, UniProt P68871+P69905).
T1 construct: A 5% suspension of human erythrocytes in aqueous sodium chloride; endogenous in cells; host or cells: human erythrocytes (intact, 5% suspension)
Description: Uptake of 65Zn from 2:1 zinc(II) complexes by haemoglobin in human erythrocytes. The following applies: 2:1 zinc complex 5 x 10^-4M with excess ligand, 1 hour, 37° C., pH 7.4, human erythrocytes. Type of assay: cell-based. As to the method: (§1) Uptake of zinc from complexes by haemoglobin (1) A 5% suspension of human erythrocytes in aqueous sodium chloride (b 130 mM) buffered to pH 7.4 by 20 mM Tris hydrochloride (2 ml) was incubated for 1 hour at 37° C. with the 2:1 zinc(II) complex in the presence of an excess of the ligand-forming compound. The complex was formed in situ in the buffer using ^65 Zn labelled ZnSO4 at a concentration selected over a range from 1×10^-6 to 4×10^-3 M compound at ten times this concentration and a small amount of Tris free base (to about 2 mM) added to the medium to avoid an acid pH on reaction of the ZnSO4 and the compound to form the complex. Following the period of incubation, an aliquot of the erythrocyte/medium mixture was placed above a layer of silicone oil and the erythrocytes separated by […] centrifugation through the oil. The ^65 Zn levels associated with the erythrocytes and the incubation medium were then counted and the distribution ratio (concentration in erythrocytes/concentration in medium) calculated. The average distribution ratios of zinc obtained in a series of experiments for the homogeneous 2:1 complex from the ligand-providing compounds 3-hydroxy-2methyl-4-pyrone, 2-ethyl-3-hydroxy-4-pyrone and 3-hydroxy-2-(1'-methylethyl)-4-pyrone at a concentration of 5 x 10^-4M are shown in Table 1 together with the percentage of the total amount of zinc which is absorbed in the erythrocytes.

Another assay deals with Normal erythrocytes. Description: Oxygen dissociation curve / oxygen affinity, normal erythrocytes. Type of assay: cell-based, human. The method, then: (§2) (1) A 50% suspension of human erythrocytes in pH 7.09 8BisTris/NaCl buffer005M BisTris(bis(2-hydroxyethyl)imino-tris(hydroxymethyl)methane and 0.13M NaCl was incubated for 15 minutes at 37° C. with the 2:1 zinc(II) complex of 2-ethyl-3-hydroxy-4-pyrone in the presence of an excess of the ligand-forming compound, the complex being formed in situ using zinc sulphate and a 10 molar excess of 2-ethyl-3-hydroxy-4-pyrone (to provide the 2:1 complex and an 8 molar excess of the pyrone). The oxygen dissociation curve of the erythrocytes was then determined using the method of Bellingham and Huehns (Nature, -968, 218, 924-926) which involves measuring the change of OD at two wavelengths (570 and 555 nm) after the sequential measured addition of oxygen in a tanometer. The experiment was conducted using normal erythrocytes, 2,3-diphosphoglyceric acid (DPG) depleted erythrocytes, foetal erythocytes and sickle erythrocytes. A 2.5 mM concentration of zinc was employed in each case together with a proportion of erythrocytes such as to provide a 2:1 ratio of zinc:haemoglobin and consequent saturation of the haemoglobin by zinc, except in one experiment where the proportion was varied to provide a ratio varying from 0.5:1 to 2:1. In each case a control was carried out in the absence of any zinc sulphate or 2-ethyl-3-hydroxy-4-pyrone and in one case two additional controls were carried out in the presence of one of these compounds used alone. The values for p(O2)50 (i.e. the oxygen pressure at which 50% of the haemoglobin is in the oxygenated form) obtained in each case are shown in Table 2 (together with the inferred Zn:Hb ratio) from which it will be seen that the oxygen affinity of normal erythrocytes, and also of sickle erythrocytes, is increased through treatment of the cells with zinc(II) (2-ethyl-3-hydroxy-4-pyrone)2. Foetal erythrocytes, which contain Hb-F and therefore show different characteristics from normal eythrocytes which contain Hb-A, were as expected not affected. […] With sickle erythrocytes the effect is even more marked as is further illustrated in (2) below.
(§3) (2) The effect of the 2:1 2-ethyl-3-hydroxy-4-pyrone:zinc(II) complex on normal and sickle erythrocytes was further compared using a basically similar procedure to that described in (-) above. Concentrations of 2.5 mM ZnSO4 and 25 mM pyrone, and a 2:1 Zn:Hb ratio were again used but the incubation period was extended to 1 hour. In each case a control experiment was carried out in the absence of any zinc sulphate or pyrone.
(3) The effect of different concentrations of the 2:1 2-ethyl-3-hydroxy-4-pyrone:zinc(II) complex upon normal erythrocytes was studied using a basically similar procedure to that described in (l) above but with ZnSO4 concentrations of 0.1, 1 and 10 mM (and ten times these concentrations of the pyrone) and extending the incubation period to 1 hour. A control experiment was carried out in the absence of any zinc sulphate or pyrone.

The test system of another assay is Sickle erythrocytes. The experiment in a line: Oxygen dissociation curve / oxygen affinity, sickle erythrocytes. Type of assay: cell-based, human. The method, then: as §2, §3
The next assay has as its system Foetal erythrocytes. Description: Oxygen dissociation curve / oxygen affinity, foetal erythrocytes. Type of assay: cell-based, human. The method, then: (§4) (1) A 50% suspension of human erythrocytes in pH 7.09 8BisTris/NaCl buffer005M BisTris(bis(2-hydroxyethyl)imino-tris(hydroxymethyl)methane and 0.13M NaCl was incubated for 15 minutes at 37° C. with the 2:1 zinc(II) complex of 2-ethyl-3-hydroxy-4-pyrone in the presence of an excess of the ligand-forming compound, the complex being formed in situ using zinc sulphate and a 10 molar excess of 2-ethyl-3-hydroxy-4-pyrone (to provide the 2:1 complex and an 8 molar excess of the pyrone). The oxygen dissociation curve of the erythrocytes was then determined using the method of Bellingham and Huehns (Nature, -968, 218, 924-926) which involves measuring the change of OD at two wavelengths (570 and 555 nm) after the sequential measured addition of oxygen in a tanometer. The experiment was conducted using normal erythrocytes, 2,3-diphosphoglyceric acid (DPG) depleted erythrocytes, foetal erythocytes and sickle erythrocytes. A 2.5 mM concentration of zinc was employed in each case together with a proportion of erythrocytes such as to provide a 2:1 ratio of zinc:haemoglobin and consequent saturation of the haemoglobin by zinc, except in one experiment where the proportion was varied to provide a ratio varying from 0.5:1 to 2:1. […]

Assay [2] has as its system DPG depleted erythrocytes. Description: Oxygen dissociation curve / oxygen affinity, DPG depleted erythrocytes. Type of assay: cell-based, human. The conditions noted are these: 2.5 mM ZnSO4 + 25 mM pyrone, Zn:Hb 2:1; control 15.75. The method, then:
as §4

A further assay concerns erythrocyte ghosts. Description: Uptake of 65Zn by erythrocyte ghosts lacking haemoglobin. Type of assay: cell-based, human. The conditions noted are these: 2.5 mM 65ZnSO4 and 25 mM 2-ethyl-3-hydroxy-4-pyrone. As to the method:
as §1, with “The average distribution ratios of zinc obtained in a series of experiments for the homogeneous 2:1 complex from the ligand-providing compounds 3-hydroxy-2methyl-4-pyrone, 2-ethyl-3-hydroxy-4-pyrone and 3-hydroxy-2-(1'-methylethyl)-4-pyrone at a concentration of 5 x 10^-4M are shown in Table 1 together with the percentage of the total amount of zinc which is absorbed in the erythrocytes.” left out

Assay [3] relates to haemoglobin. The experiment in a line: Donation of zinc to haemoglobin, elution profile of 65Zn label on PD-10 column. Type of assay: binding. The method, then: There was no evidence of any saturation of the rate of uptake over the concentration range studied so that the complex is not actively transported and, in order to account for the high distribution ratios observed, the zinc must therefore dissociate from the complex and bind to a macromolecule or membrane associated with the erythrocyte. The experiment just described was repeated at a concentration of 2.5 mM ^65 ZnSO4 and 25 mM 2-ethyl-3-hydroxy-4-pyrone using erythrocyte ghosts in which the haemoglobin is lacking rather than whole erythrocytes. […] (2) The ability of the zinc(II) complex of 2-ethyl-3-hydroxy-4-pyrone to donate zinc to haemoglobin was investigated by [j studying the elution profile of the ^65 Zn label when a mixture of haemoglobin and the ^65 Zn-labelled complex (at 1 mM concentration)in NaCI (130 mM) buffered to pH 7.4 by Tris hydrochloride is applied to a PD-10 colum (Sephadex […] gel permeation column - Pharmacia).

T1 sequence (P69905 2-142 limits assumed): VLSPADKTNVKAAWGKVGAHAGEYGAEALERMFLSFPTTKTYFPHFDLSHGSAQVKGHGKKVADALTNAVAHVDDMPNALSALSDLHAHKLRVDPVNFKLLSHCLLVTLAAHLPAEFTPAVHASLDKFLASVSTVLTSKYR
T1 sequence (P68871 2-147 limits assumed): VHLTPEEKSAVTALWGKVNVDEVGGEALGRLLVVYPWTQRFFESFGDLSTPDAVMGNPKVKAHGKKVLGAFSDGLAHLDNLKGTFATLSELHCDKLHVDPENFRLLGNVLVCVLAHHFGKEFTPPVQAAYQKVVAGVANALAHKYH

Consider `Cc1occc(=O)c1[O-].Cc1occc(=O)c1[O-].[Zn+2]` [zinc(II) (3-hydroxy-2-methyl--pyrone)2], for which, on haemoglobin [1], the “Distribution ratio (concentration in erythrocytes/concentration in medium)” value worked out at 8 and the “Percentage of zinc absorbed” value is given as 54%.
`O=S(=O)([O-])[O-].[Zn+2]` [ZnSO4, zinc sulphate, reference compound]: in the assay on Normal erythrocytes (2.5 mM ZnSO4 alone, Zn:Hb 2:1, control 26), the “P(O2)50” value is on record as 24.5 mmHg.
With `CCc1occc(=O)c1[O-].CCc1occc(=O)c1[O-].[Zn+2]` [zinc(II) (2-ethyl-3-hydroxy-4-pyrone)2], on haemoglobin [1], the “Distribution ratio (concentration in erythrocytes/concentration in medium)” value amounted to 300. Besides, the “Percentage of zinc absorbed” value on haemoglobin [1] stood at 96%. For the same compound, the “P(O2)50” value in the assay with Sickle erythrocytes (2.5 mM ZnSO4 + 25 mM pyrone, Zn:Hb 2:1, control 36) worked out at 18.5 mmHg; with Foetal erythrocytes (2.5 mM ZnSO4 + 25 mM pyrone, Zn:Hb 0:1 (assumed no uptake by HbF), control 22) it was 24 mmHg; in assay [2], 9.25 mmHg; in the assay on Normal erythrocytes (2.5 mM ZnSO4 + 25 mM pyrone, Zn:Hb 0.5:1, control 30.0), 23.5 mmHg; in the assay with Normal erythrocytes (2.5 mM ZnSO4 + 25 mM pyrone, Zn:Hb 1:1, control 30.0), 17.0 mmHg; in the assay on Normal erythrocytes (2.5 mM ZnSO4 + 25 mM pyrone, Zn:Hb 1.5:1, control 30.0), 15.0 mmHg. In addition, the “P(O2)50” value in the assay on Normal erythrocytes (2.5 mM ZnSO4 + 25 mM pyrone, Zn:Hb 2:1, control 26) is 15.5 mmHg; in the assay with Normal erythrocytes (2.5 mM ZnSO4 + 25 mM pyrone, Zn:Hb 2:1, control 27.5) it was 15 mmHg; in the assay with Normal erythrocytes (2.5 mM ZnSO4 + 25 mM pyrone, Zn:Hb 2:1, control 30.0), 15.0 mmHg. The “shift in the oxygen dissociation curve (in words)” value is listed as “a significant left shift in the oxygen dissociation curve is produced in both cases but that the difference from the control is more marked for the sickle erythrocytes” in the assay on Sickle erythrocytes (2.5 mM ZnSO4, 25 mM pyrone, 1 hour, FIG. 1b); “a significant left shift in the oxygen dissociation curve” in the assay on Normal erythrocytes (2.5 mM ZnSO4, 25 mM pyrone, 1 hour, FIG. 1a); “still a discernible left shift in the oxygen dissociation curve” in the assay on Normal erythrocytes (complex 0.1 mM, 1 hour, FIG. 2). Also, the “p(O2)50, treated cells” value is given as 18.5 mm Hg with Sickle erythrocytes (2.5 mM ZnSO4 and 25 mM pyrone, Zn:Hb 2:1, 1 hour (FIG. 1b), control 36.0); 15.0 mm Hg with Normal erythrocytes (2.5 mM ZnSO4 and 25 mM pyrone, Zn:Hb 2:1, 1 hour (FIG. 1a), control 27.5). Moreover, the “p(O2)50 shift” value stood at 17.5 mm Hg in the assay with Sickle erythrocytes (2.5 mM ZnSO4 and 25 mM pyrone, Zn:Hb 2:1, 1 hour, versus control, sickle erythrocytes); 12.5 mm Hg in the assay with Normal erythrocytes (2.5 mM ZnSO4 and 25 mM pyrone, Zn:Hb 2:1, 1 hour, versus control, normal erythrocytes). Also, the “oxygen affinity (in words)” value in the assay with Sickle erythrocytes (sickle erythrocytes, 2.5 mM zinc, 15 minutes) is “increased”; in the assay on Foetal erythrocytes (foetal erythrocytes, 2.5 mM zinc, 15 minutes) it was “not affected”; in the assay with Normal erythrocytes (normal erythrocytes, 2.5 mM zinc, 15 minutes), “increased”. Besides, the “uptake of zinc by erythrocyte ghosts (in words)” value in the assay on erythrocyte ghosts is “Only a low level of uptake of zinc was observed”. Also, the “binding of zinc to haemoglobin (in words)” value in the assay with haemoglobin [3] (1 mM complex, 20-fold molar proportion of ligand:zinc, NaCl 130 mM, pH 7.4) is recorded as “the zinc is found to bind tightly to haemoglobin”. Besides, the “binding of zinc to haemoglobin versus ligand (in words)” value in the assay with haemoglobin [3] (haemoglobin versus 2-ethyl-3-hydroxy-4-pyrone) is reported as “zinc binds more tightly to haemoglobin than to 2-ethyl-3-hydroxy-4-pyrone”. The “dose response of shift in the oxygen dissociation curve (in words)” value in the assay with Normal erythrocytes (ZnSO4 0.1, 1 and 10 mM with ten times pyrone, 1 hour, FIG. 2) was “dose response effect”.
With `CCc1occc(=O)c1O` [pyrone, 2-ethyl-3-hydroxy-4-pyrone, reference compound], the “P(O2)50” value in the assay with Normal erythrocytes (2.5 mM pyrone alone, Zn:Hb 0:1, control 26) is recorded as 28 mmHg.
As to `CC(C)c1occc(=O)c1[O-].CC(C)c1occc(=O)c1[O-].[Zn+2]` [zinc(II) (3-hydroxy-2-(2'-methylethyl)-4-pyrone)2], at haemoglobin [1], the “Distribution ratio (concentration in erythrocytes/concentration in medium)” value is listed as 550 and the “Percentage of zinc absorbed” value came to 98%.
